According to EP4574175A1, “PRODRUG FOR ANTI-AGING RELATED DISEASES AND USE METHOD THEREFOR” (BEIJING SUNCELL BIO-MEDICAL CO., LTD., priority 2022, dated 2024):

Assays:
[1] = Hepatic microsomal metabolic stability; conditions: mouse
Experimental: […] Samples were taken and analyzed at time points 0, 15, 30, 45 and 60 minutes during the incubation. The reaction was terminated by adding an amount of acetonitrile solution containing the internal standard. […] The residual percentage, half-life, intrinsic clearance, amplified clearance, hepatic clearance and hepatic extraction ratio were determined. The entire experiment was performed in triplicate. All data calculations were performed by Microsoft Excel software. Peak areas were detected by extracting the ionic spectrum. The in vitro half-life (t1/2) of the parent compound was detected by fitting the natural logarithm of the percentage elimination of the parent compound linearly to time.
The in vitro intrinsic clearance (in µL/min/mg protein) was calculated using the following equation: in vitro CLint = kV/N
The amplified clearance (in mL/min/kg) was calculated using the following equation: Amplified CLint = kV/N × the amplification factor [formula]
The hepatic clearance (in mL/min/kg) was calculated using the following equation: The predicted hepatic CLH = (Q×Fu/RB×theamplifiedCLint)/([…]) [formula] • V = the incubation volume per well (0.2 mL); • N = the total amount of protein (mg) • Q = the hepatic blood flow (mL/min/kg) • Fu = the plasma free rate (assumed to be 1) • RB = the whole blood partition coefficient (assumed to be 1)
The hepatic […] was calculated using the following equation: The hepatic extraction ratio(ER) = (thepredictedhepaticCLH)/Q [formula]

[2] = test system: normal cells (HEF, HELF, BJ, A549, HUVEC, MRC5); assay: Cell viability test (CCK-8) on normal uninduced cells, A13 vs A13bGa1; conditions: compared with parent compound A13
Experimental: Briefly, the human embryonic skin tissues and the fetal lung tissues obtained from the aborted tissues with the patient's informed consent were minced with the forcep and incubated in 1 mg/ml collagenase IV at 37°C for 1-2 hours. After the enzyme treatment, the cells were collected by centrifugation and resuspended in HEF medium (Dulbecco's modified Eagle medium (DMEM, Gibco) containing 10% fetal bovine serum (FBS, Ausbian), 1% GlutaMAX (Gibco), 1% non-essential amino acids (NEAA, Gibco) and 1% penicillin/streptomycin (Gibco). Gibco). Cells were plated on the 10 cm tissue culture dishes and grown in 10% FBS DMEM. […] They were passaged and cryopreserved according to Lonza's method. A549 cells, BJ cells and MRC5 cells were purchased from ATCC and cultured in DMEM medium containing 10% fetal bovine serum (FBS, Ausbian), and 1% penicillin/streptomycin (Gibco).
Cell Counting Kit-8 (CCK-8) assay was used to assess the cell viability. The senescent and non-senescent cells or chondrocytes were seeded into the 96-well plates and cultured overnight. The cells were then treated with control (0.05% DMSO) or different concentrations of the drug to be tested. […] Absorbance was measured at the wavelength of 450 nm.

platelets = assay: In vivo platelet toxicity test; parameters: species or system C57 mice
Experimental: All drugs were mixed in 85% physiological saline, 5% DMSO (Sigma, D8418) and 10% Solutol HS 15 (Sigma, 42966), and administered to mice by intraperitoneal (i.p.) injection. To treat the bleomycin-injured young mice, A13 (2 mg/kg), A13bGa1 (5 mg/kg), or an empty vehicle control was administered three consecutive days per week for four weeks. A1331852 (abbreviated as A13) was purchased from MCE.
A single administration of A13 or A13bG was performed. Female 5-6 week old C57 mice were treated with a single intraperitoneal injection. A13 and A13bG were administered in three different dose groups of 2, 5, and 20 mg/kg. Approximately 50 µl of blood was collected from each mouse at different time points into the EDTA tubes (RAM Scientific) by means of inner canthal blood extraction, and analyzed using a haematology analyzer for a blood routine examination and a platelet counting. Multiple administrations of A13 or A13bG were performed. Female 5-6 week old C57 mice were treated with multiple intraperitoneal injections. A13 and A13bG were administered in three different dose groups of 2, 5 and 20 mg/kg, three consecutive days per week, followed by a 4-day withdrawal for 3 weeks. The time points of administration were in the afternoon of days 0, 1, 2, 7, 8, 9, 14, 15, and 16, and the time points of blood collection and testing were in the morning of days 1, 3, 5, 8, 10, 12, 15, 17, and 19, respectively.
For a blood routine examination, 50 µl of fresh blood was collected from each mouse and immediately mixed with EDTA. Blood samples were analyzed by Celltac Alpha MEK-6400 series haematology analyzer (Nihon Kohden, MEK-6400). Data were expressed as the number of different blood cells or platelets per µl of blood. For the serum biochemical analysis, the blood samples were collected, coagulated for 2 hours at room temperature or overnight at 4°C, and then centrifuged (1000 g, 10 minutes) to obtain serum. A 200 µl of serum was aliquoted and analyzed for alanine aminotransferase (ALT), aspartate aminotransferase (AST), uric acid (UA), and creatinine (CREA) by a chemistry analyzer (Mindray, BS-350E).

[3] = Hepatic microsomal metabolic stability

In the case of `Cc1c(-c2ccc(N3CCc4cccc(C(=O)Nc5nc6ccccc6s5)c4C3)nc2C(=O)OCc2ccc(O[C@@H]3O[C@H](CO)[C@H](O)[C@H](O)[C@H]3O)c([N+](=O)[O-])c2)cnn1CC12CC3CC(CC(C3)C1)C2` [A13bGa1], the “The hepatic extraction ratio (E)” value [1] is reported as 0.40, the CLint scaled at 1 µM ([1]; microsomes) is reported as 36.2 mL/min/kg and the microsomal CLint at 1 µM ([1]; microsomes) is reported as 13.8 µL/min/mg. For the same compound, the “toxicity to the normal cells” value [2] was “greatly reduced”, the “toxic effects on the platelets” value (platelets; multiple rounds i.p., 3 consecutive days per week for 3 weeks, 2, 5 and 20 mg/kg) was “significantly reduced” and the platelet-destroying effect (platelets; single intraperitoneal administration, 20 mg/kg) was “strong platelet-destroying effect only at the higher dose of 20 mg/kg”. For the same compound, the “toxicity to the platelets” value (platelets; single intraperitoneal administration, 2, 5 and 20 mg/kg) was “significantly less toxic to the platelets than the parent compound A13”, the “The hepatic extraction ratio (E)” value ([3]; Monkey) was 0.69 and the microsomal CLint at 1 µM ([3]; monkey, microsomes) was 65.3 µL/min/mg. The CLint scaled at 1 µM ([3]; monkey, microsomes, The amplified intrinsic clearance Cl int) was 9800 mL/min/kg and the CLint scaled at 1 µM ([3]; monkey, microsomes, The predicted intrinsic hepatic clearance Cl int) was 30.2 mL/min/kg.
